Measured values published in patent US12263170B2, “Systems and methods for treating cancer” (priority 2015, dated 2025).

What was measured:
[1] = test system: LKB1 deficient cells (A427, A549, and H2030); assay: Viability of KRas mutant NSCLC adenocarcinoma cell lines at various concentrations of AZD1775 (FIGS. 1A, 1B); type: cell-based, human; conditions: LKB1 deficient cells compared with the other KRas mutant NSCLC cell lines
From the text: Referring to FIGS. 1A and 1B, the inventors assessed the impact of various concentrations of a G2/M checkpoint inhibitor (i.e., Wee1 kinase inhibitor-AZD1775) on various cell lines with different genetic backgrounds. All of the cell lines tested in FIGS. 1A and 1B where KRas mutant, some of the cell lines were p53 mutants, and some of the cell lines (i.e., A427, A549, and H2030) were LKB1 deficient. All cell lines were adenocarcinoma from patients with NSCLC.

A427 cell line = assay: Percent viability with AZD1775, LKB1 rescue vs KDLKB1 transfection (FIG. 2A); type: cell-based, human; conditions: A427 cells with rescue copy of LKB1 compared to control KDLKB1 (non-functional kinase)
Procedure: FIG. 2A illustrates, in accordance with embodiments herein, the role of LKB1 in the sensitivity of A427 cells to AZD1775. The A427 cell line was transfected with either a rescue copy of LKB1 (“LKB1”) or a copy of LKB1 with a non-functional kinase domain (“KDLKB1”) that produces non-functional LKB1. […] Next, referring to FIGS. 2A-2C, the LKB1 deficient lines discussed above in reference to FIGS. 1A and 1B were assessed for percent viability in the presence of increasing concentrations of AZD1775. Moreover, as all three cell lines were already LKB1 deficient, the inventors wanted to elucidate the role of LKB1 in the sensitivity of these cells to AZD1775. As such, each cell line with transfected with either a rescue copy of LKB1 (referred to as “LKB1” in these figures) or a copy of LKB1 with a non-functional kinase domain (referred to as KDLKB1 in these figures), which would produce non-functional LKB1.

A549 cell line = assay: Percent viability with AZD1775, LKB1 rescue vs KDLKB1 transfection (FIG. 2B); type: cell-based, human; conditions: A549 cells with rescue copy of LKB1 compared to control KDLKB1 (non-functional kinase)
Procedure: FIG. 2B illustrates, in accordance with embodiments herein, the role of LKB1 in the sensitivity of […] to AZD1775. The A549 cell line was transfected with either a rescue copy of LKB1 (“LKB1”) or a copy of LKB1 with a non-functional kinase domain (“KDLKB1”) that produces non-functional LKB1. […] Next, referring to FIGS. 2A-2C, the LKB1 deficient lines discussed above in reference to FIGS. 1A and 1B were assessed for percent viability in the presence of increasing concentrations of AZD1775. Moreover, as all three cell lines were already LKB1 deficient, the inventors wanted to elucidate the role of LKB1 in the sensitivity of these cells to AZD1775. As such, each cell line with transfected with either a rescue copy of LKB1 (referred to as “LKB1” in these figures) or a copy of LKB1 with a non-functional kinase domain (referred to as KDLKB1 in these figures), which would produce non-functional LKB1.

H2030 cell line = assay: Percent viability with AZD1775, LKB1 rescue vs KDLKB1 transfection (FIG. 2C); type: cell-based, human; conditions: H2030 cells with rescue copy of LKB1 compared to control KDLKB1 (non-functional kinase)
Procedure: FIG. 2C illustrates, in accordance with embodiments herein, the role of LKB1 in the sensitivity of […] to AZD1775. The H2030 cell line was transfected with either a rescue copy of LKB1 (“LKB1”) or a copy of LKB1 with a non-functional kinase domain (“KDLKB1”) that produces non-functional LKB1.
Next, referring to FIGS. 2A-2C, the LKB1 deficient lines discussed above in reference to FIGS. 1A and 1B were assessed for percent viability in the presence of increasing concentrations of AZD1775. Moreover, as all three cell lines were already LKB1 deficient, the inventors wanted to elucidate the role of LKB1 in the sensitivity of these cells to AZD1775. As such, each cell line with transfected with either a rescue copy of LKB1 (referred to as “LKB1” in these figures) or a copy of LKB1 with a non-functional kinase domain (referred to as KDLKB1 in these figures), which would produce non-functional LKB1.

[2] = test system: 3381A murine cells (KRas mutant and LKB1 deficient); assay: Percent viability with AZD1775, LKB1 rescue vs empty vector pBabe (FIG. 2D); type: cell-based; conditions: 3381A cells with rescue copy of LKB1 compared to control empty vector (pBabe)
Procedure: Referring now to FIG. 2D, a similar experiment was conducted on murine cells that were KRas mutant and LKB1 deficient (3381A cells).

[3] = test system: H2030 cells (KRas mutant and LKB1 deficient); assay: Viability with AZD1775 combined with cisplatin, pemetrexed or gemcitabine (FIGS. 3A-3C); type: cell-based, human; conditions: AZD1775 alone
Procedure: Similar to the previous experiments, H2030 cells (KRas mutant and LKB1 deficient) were transfected with a rescue copy of LKB1 or a version of LKB1 with a non-functional kinase domain that produces non-functional LKB1 protein. Moreover, these different cells were treated with AZD1775 (also referred to as MK1775) in combination with cisplatin (FIG. 3A), pemetrexed (FIG. 3B), or gemcitabine (FIG. 3C).

A549 and H2030 cells = assay: Cell signaling molecules after AZD1775 alone and with 2Gy ionizing radiation (FIGS. 4A, 4B); type: cell-based, human; conditions: AZD1775 alone and in combination with 2Gy of ionizing radiation
From the text: Next, referring now to FIGS. 4A and 4B, the investigators examined cell signaling molecules in A549 and H2030 cells, including both rescue and control conditions. The investigators treated with AZD1775 alone and in combination with 2Gy of ionizing radiation.

[4] = test system: mutant kras/lkb 1 deficient nsclc tumors in transgenic mice; assay: Survival of adenoCre-infected KRasG12D/LKB1 FL/FL/luci mice (FIG. 9); type: in vivo; conditions: Cisplatin once per week 2.5 mg/kg, with or without AZD1775 30 mg/kg three times per week; treated for four weeks; log-rank analysis
Procedure: Referring to FIG. 9, the investigators transiently infected 6-8 week old KRas^G12D/LKB 1^FL/FL/luci with 5×10^6 P.F.U. of adenoCre via intratracheal inhalation. Mice received scans using the Xenogen IVIS at 8 weeks to identify disease. Mice were then randomized to Cisplatin (once per week, 2.5 mg/kg) or AZD1775 (30 mg/kg, three times per week)+cisplatin and treated for four weeks. Survival was calculated via log-rank analysis. It was observed that the median survival rate of mice receiving Cisplatin was 12 weeks, whereas the median survival rate of mice receiving Cisplatin+AZD1775 was 14 weeks. For this set of experiments, the hazard ratio was 0.3972, while the confidence interval was 0.0605-0.6086.

| Compound | EC50 values ([1]; FIG. 1B) | viability ([1]; increasing concentrations of AZD1775, FIG. 1A) | sensitivity to AZD1775 as measured by percent viability (A427 cell line) | sensitivity to AZD1775 as measured by percent viability (A549 cell line) | sensitivity to AZD1775 as measured by percent viability (H2030 cell line) | sensitivity to AZD1775 as measured by percent viability [2] | cell viability [3] | phosphorylated AMPK (A549 and H2030 cells; LKB1 (rescue) cells) | phosphorylated H2AX (indicator of DNA damage) (A549 and H2030 cells; LKB1-deficient cells) | median survival rate [4] [weeks] |
| --- | --- | --- | --- | --- | --- | --- | --- | --- | --- | --- |
| C=CCn1c(=O)c2cnc(Nc3ccc(N4CCN(C)CC4)cc3)nc2n1-c1cccc(C(C)(C)O)n1 [AZD1775] | lowest EC50 values | greatest reduced viability | less sensitive | less sensitive | less sensitive | less sensitive | negative impact on cell viability | increased amounts of phosphorylated AMPK | increased amount of phosphorylated H2AX |  |
| N.N.[Cl][Pt][Cl] [Cisplatin] |  |  |  |  |  |  |  |  |  | 12 |
